Columns and labels:
BRD4 BD1 = molecular target: T1, BRD4 BD1 (Homo sapiens, UniProt O60885); experiment: NanoBRET bromodomain assay, BRD4 BD1; format: cell-based; details: HEK293 cells transfected with NanoLuc-BRD4-BD1
T1 construct: HEK293 cells were transfected using NanoLuc-BRD4-BD1 or NanoLuc-BRD4-BD2 fusion vectors; host or cells: HEK293
Procedure: (§1) HEK293 cells were transfected using NanoLuc-BRD4-BD1 or NanoLuc-BRD4-BD2 fusion vectors and incubated at 37° C. in an atmosphere of 5% CO2 for 20-24 hours. The transfected cells were then dispensed into 96-well plates using 90 μl cell suspension per well containing 2×10^5 cells/ml in Opti-MEM and 1x final concentration of tracer. 90 μl per well of cell suspension without tracer was also dispensed into at least 3 wells as “No tracer control samples” for background correction. Serially diluted test compounds were prepared at 1000× concentration in DMSO and further diluted to 10× concentration in Opti-MEM. 10 μl per well of the serially diluted 10× test compound was added to the 96-well plates containing cells with 1x tracer. Plates were then incubated at 37° C.+5% C02 incubator for 2 hours. Immediately prior to BRET measurements, a 3x solution consisting of 1:166 dilution of Nano-Glo® Substrate plus a 1:500 dilution of Extracellular NanoLuc Inhibitor in Opti-MEM was prepared and 50 μl per well was added to the cells. Donor emission (450 nm) and acceptor emission (610 nm) were measured using PHERAstar (BMG LabTech). For data analysis, the raw BRET ratio was generated and converted to milliBRET units with background correction using the formula: [(Acceptorsample/Donorsample)−(Acceptorno tracer control/Donorno tracer control)]×1000. The mBU data was plotted as a function of compound concentration and IC50s for BRET assay were determined by nonlinear regression analysis of concentration response curves using the GraphPad Prism software.

BRD4 BD2 = molecular target: T2, BRD4 BD2 (Homo sapiens, UniProt O60885); experiment: NanoBRET bromodomain assay, BRD4 BD2; format: cell-based; details: for Fold selectivity BRD4 BD1/BD2: IC50 BD1/IC50 BD2; for IC50: NanoBRET, HEK293 cells transfected with NanoLuc-BRD4-BD2
T2 construct: HEK293 cells were transfected using NanoLuc-BRD4-BD1 or NanoLuc-BRD4-BD2 fusion vectors; host or cells: HEK293
Procedure: as §1
Fold Selectivity Calculated (IC50 BD1/IC50 BD2).

[1] = Balb/c mouse pharmacokinetics after oral (PO) dosing; format: in vivo; details: male, plasma
Procedure: Compounds were formulated in 5% DMSO, 40% PEG-400, 55% Milli-Q water at a concentration of 0.5 mg/mL for 5 mg/kg and 3 mg/mL for 30 mg/kg PO dosing. […] Blood was sampled at various timepoints and plasma isolated. 10 μL of plasma with 5 μL of blank Balb/c mouse plasma were added to 200 μL of acetonitrile containing IS mixture. The samples were vortexed for 30 s. After centrifugation at 4 degree Celsius, 3900 rpm for 15 min, the supernatant was diluted 3 times with water. 20 μL of diluted supernatant was injected into the LC/MS/MS system for quantitative analysis and concentration of analyte determined by comparison with matrix matched standard curve. WinNonlin (Phoenix™, version 8.3) or other similar software was used for pharmacokinetic calculations.

[2] = Intrinsic clearance in rat liver microsomes; format: in vitro ADME; details: pH 7.4, NADPH, read-out: Rat Microsomal Stability T½
Procedure: A 50 mM stock solution (in DMSO) was prepared for the compound. From the stock solution, a working solution of 0.5 mM was prepared by diluting the compound in DMSO. This concentration of working solution was prepared considering a final concentration of 1 uM with 0.1% DMSO. The compound (1 uL of working solution) was spiked in PBS with pH 7.4 (22 uL) at a concentration of 1 uM. Subsequently, 110 uL of 10 mM NADPH was added (as a co-factor). The sample was incubated at 37° C. for 15 min. Following this, pre-warmed rat liver microsomes (27.5 uL; final protein conc. 0.5 mg/mL) were added. The samples were then incubated at 37° C. Aliquots of samples were withdrawn at 0, 5, 15, 30, 45 and 60 min. The reaction was stopped by using chilled acetonitrile containing internal standard. The samples were centrifuged and the supernatants analysed by LC-MS/MS. The percent compound remaining at each time point was calculated with respect to that of the 0 min sample. The data were then analysed to calculate half-life. Note that control samples were run without NADPH and blank samples were prepared using DMSO without the test Compound.

Cc1cc(-c2cc3c(-c4cc(=O)n(C)cc4-c4ccccc4)cn(C)c(=O)c3[nH]2)n(C)n1 [Example 60, 2-(1,3-dimethyl-1H-pyrazol-5-yl)-6-methyl-4-(1-methyl-2-oxo-5-phenyl-1,2-dihydropyridin-4-yl)-1,6-dihydro-7H-pyrrolo[2,3-c] pyridin-7-one]
IC50 (BRD4 BD1): > 1 µM | Fold selectivity BRD4 BD1/BD2 (BRD4 BD2): xxx (Fold >200) | IC50 (BRD4 BD2): ≤ 0.05 µM | Cmax ([1]; 5 mg/kg, Casette): 631 ng/mL | bioavailability ([1]; 5 mg/kg, Casette): 59.9%

Cc1cc(-c2cc3c(-c4cc(=O)n(C5CC5)cc4Oc4c(C)cccc4C)cn(C)c(=O)c3[nH]2)cc(C)n1 [Example 59, 1-cyclopropyl-5-(2,6-dimethylphenoxy)-4-[2-(2,6-dimethylpyridin-4-yl)-6-methyl-7-oxo-1H-pyrrolo[2,3-c]pyridin-4-yl]pyridin-2-one]
IC50 (BRD4 BD1): > 1 µM | Fold selectivity BRD4 BD1/BD2 (BRD4 BD2): xxx (Fold >200) | IC50 (BRD4 BD2): ≤ 0.05 µM | Cmax ([1]; 30 mg/kg, Individual): 5460 ng/mL | bioavailability ([1]; 30 mg/kg, Individual): 100%

Cc1cccc(C)c1Oc1cn(C)c(=O)cc1-c1cn(C)c(=O)c2[nH]c(-c3ccc(F)cc3)cc12 [Example 25, 4-(5-(2,6-dimethylphenoxy)-1-methyl-2-oxo-1,2-dihydropyridin-4-yl)-2-(4-fluorophenyl)-6-methyl-1,6-dihydro-7H-pyrrolo[2,3-c] pyridin-7-one]
IC50 (BRD4 BD1): > 1 µM | Fold selectivity BRD4 BD1/BD2 (BRD4 BD2): xxx (Fold >200) | IC50 (BRD4 BD2): ≤ 0.05 µM | half-life at 1 uM [2]: > 1 h

Cc1ccc(-c2cc3c(-c4cc(=O)n(C)cc4Oc4c(C)cccc4C)cn(C)c(=O)c3[nH]2)cc1 [Example 23, 4-(5-(2,6-dimethylphenoxy)-1-methyl-2-oxo-1,2-dihydropyridin-4-yl)-6-methyl-2-(p-tolyl)-1,6-dihydro-7H-pyrrolo[2,3-c] pyridin-7-one]
IC50 (BRD4 BD1): > 1 µM | Fold selectivity BRD4 BD1/BD2 (BRD4 BD2): x (Fold >2 and ≤50) | IC50 (BRD4 BD2): 0.2 to 1 µM | half-life at 1 uM [2]: > 1 h

CC(C)n1cc(-c2cc3c(-c4cc(=O)n(C)cc4-c4ccccc4)cn(C)c(=O)c3[nH]2)cn1 [Example 61, 4-[2-(1-isopropylpyrazol-4-yl)-6-methyl-7-oxo-1H-pyrrolo[2,3-c]pyridin-4-yl]-1-methyl-5-phenylpyridin-2-one]
IC50 (BRD4 BD1): > 1 µM | Fold selectivity BRD4 BD1/BD2 (BRD4 BD2): xxx (Fold >200) | IC50 (BRD4 BD2): ≤ 0.05 µM | Cmax ([1]; 5 mg/kg, Casette): 622 ng/mL | bioavailability ([1]; 5 mg/kg, Casette): 51.2%

Cc1cccc(C)c1Oc1cn(C)c(=O)cc1-c1cn(C)c(=O)c2[nH]c(-c3cnn[nH]3)cc12 [Example 30, 4-(5-(2,6-dimethylphenoxy)-1-methyl-2-oxo-1,2-dihydropyridin-4-yl)-6-methyl-2-(1H-1,2,3-triazol-5-yl)-1,6-dihydro-7H-pyrrolo[2,3-c] pyridin-7-one]
IC50 (BRD4 BD1): > 1 µM | Fold selectivity BRD4 BD1/BD2 (BRD4 BD2): xx (Fold >50 and ≤200) | IC50 (BRD4 BD2): 0.05 to 0.2 µM | half-life at 1 uM [2]: > 1 h

Cc1cccc(C)c1Oc1cn(C)c(=O)cc1-c1cn(C)c(=O)c2[nH]c(-c3cnn(C)c3C)cc12 [Example 36, 2-(1,5-dimethyl-1H-pyrazol-4-yl)-4-(5-(2,6-dimethylphenoxy)-1-methyl-2-oxo-1,2-dihydropyridin-4-yl)-6-methyl-1,6-dihydro-7H-pyrrolo[2,3-c] pyridin-7-one]
IC50 (BRD4 BD1): > 1 µM | Fold selectivity BRD4 BD1/BD2 (BRD4 BD2): xx (Fold >50 and ≤200) | IC50 (BRD4 BD2): ≤ 0.05 µM | half-life at 1 uM [2]: > 1 h

Cc1cccc(C)c1Oc1cn(C)c(=O)cc1-c1cn(C)c(=O)c2[nH]c(-c3ccn[nH]3)cc12 [Example 32, 4-(5-(2,6-dimethylphenoxy)-1-methyl-2-oxo-1,2-dihydropyridin-4-yl)-6-methyl-2-(1H-pyrazol-5-yl)-1,6-dihydro-7H-pyrrolo [2,3-c] pyridin-7-one]
IC50 (BRD4 BD1): > 1 µM | Fold selectivity BRD4 BD1/BD2 (BRD4 BD2): xx (Fold >50 and ≤200) | IC50 (BRD4 BD2): 0.05 to 0.2 µM | half-life at 1 uM [2]: > 1 h

Cc1ccc(C(F)(F)F)cc1-c1cc2c(-c3cc(=O)n(C)cc3Oc3c(C)cccc3C)cn(C)c(=O)c2[nH]1 [Example 21, 4-(5-(2,6-dimethylphenoxy)-1-methyl-2-oxo-1,2-dihydropyridin-4-yl)-6-methyl-2-(2-methyl-5-(trifluoromethyl)phenyl)-1,6-dihydro-7H-pyrrolo[2,3-c] pyridin-7-one]
IC50 (BRD4 BD1): > 1 µM | Fold selectivity BRD4 BD1/BD2 (BRD4 BD2): — (Fold ≥0 and ≤2) | IC50 (BRD4 BD2): > 1 µM | half-life at 1 uM [2]: > 1 h

Cc1cccc(C)c1Oc1cn(C)c(=O)cc1-c1cn(C)c(=O)c2[nH]c(-c3ccc(S(C)(=O)=O)cc3)cc12 [Example 26, 4-(5-(2,6-dimethylphenoxy)-1-methyl-2-oxo-1,2-dihydropyridin-4-yl)-6-methyl-2-(4-(methylsulfonyl)phenyl)-1,6-dihydro-7H-pyrrolo[2,3-c] pyridin-7-one]
IC50 (BRD4 BD1): > 1 µM | Fold selectivity BRD4 BD1/BD2 (BRD4 BD2): xx (Fold >50 and ≤200) | IC50 (BRD4 BD2): ≤ 0.05 µM | half-life at 1 uM [2]: > 1 h

Cc1cccc(C)c1Oc1cn(C)c(=O)cc1-c1cn(C)c(=O)c2[nH]c(-c3ccc(C(=O)O)cc3)cc12 [Example 35, 4-(4-(5-(2,6-dimethylphenoxy)-1-methyl-2-oxo-1,2-dihydropyridin-4-yl)-6-methyl-7-oxo-6,7-dihydro-1H-pyrrolo[2,3-c]pyridin-2-yl) benzoic acid]
IC50 (BRD4 BD1): > 1 µM | Fold selectivity BRD4 BD1/BD2 (BRD4 BD2): — (Fold ≥0 and ≤2) | IC50 (BRD4 BD2): > 1 µM | half-life at 1 uM [2]: > 1 h

Cc1ccc(C)c(-c2cc3c(-c4cc(=O)n(C)cc4Oc4c(C)cccc4C)cn(C)c(=O)c3[nH]2)c1 [Example 19, 4-(5-(2,6-dimethylphenoxy)-1-methyl-2-oxo-1,2-dihydropyridin-4-yl)-2-(2,5-dimethylphenyl)-6-methyl-1,6-dihydro-7H-pyrrolo[2,3-c] pyridin-7-one]
IC50 (BRD4 BD1): > 1 µM | Fold selectivity BRD4 BD1/BD2 (BRD4 BD2): x (Fold >2 and ≤50) | IC50 (BRD4 BD2): 0.2 to 1 µM | half-life at 1 uM [2]: > 1 h

Cc1cccc(C)c1Oc1cn(C)c(=O)cc1-c1cn(C)c(=O)c2[nH]c(-c3ccccc3)cc12 [Example 8, 4-(5-(2,6-dimethylphenoxy)-1-methyl-2-oxo-1,2-dihydropyridin-4-yl)-6-methyl-2-phenyl-1,6-dihydro-7H-pyrrolo[2,3-c] pyridin-7-one]
IC50 (BRD4 BD1): > 1 µM | Fold selectivity BRD4 BD1/BD2 (BRD4 BD2): xx (Fold >50 and ≤200) | IC50 (BRD4 BD2): 0.05 to 0.2 µM | half-life at 1 uM [2]: > 1 h

Cc1cccc(C)c1Oc1cn(C)c(=O)cc1-c1cn(C)c(=O)c2[nH]c(-c3cncnc3)cc12 [Example 22, 4-(5-(2,6-dimethylphenoxy)-1-methyl-2-oxo-1,2-dihydropyridin-4-yl)-6-methyl-2-(pyrimidin-5-yl)-1,6-dihydro-7H-pyrrolo[2,3-c] pyridin-7-one]
IC50 (BRD4 BD1): > 1 µM | Fold selectivity BRD4 BD1/BD2 (BRD4 BD2): xx (Fold >50 and ≤200) | IC50 (BRD4 BD2): 0.05 to 0.2 µM | half-life at 1 uM [2]: > 1 h

Cc1cccc(C)c1Oc1cn(C)c(=O)cc1-c1cn(C)c(=O)c2[nH]c(-c3cn(C(C)C)nc3C)cc12 [Example 6, 4-(5-(2,6-dimethylphenoxy)-1-methyl-2-oxo-1,2-dihydropyridin-4-yl)-2-(1-isopropyl-3-methyl-1H-pyrazol-4-yl)-6-methyl-1,6-dihydro-7H-pyrrolo[2,3-c]pyridin-7-one]
IC50 (BRD4 BD1): 0.5 to 1 µM | Fold selectivity BRD4 BD1/BD2 (BRD4 BD2): xxx (Fold >200) | IC50 (BRD4 BD2): ≤ 0.05 µM | half-life at 1 uM [2]: > 1 h

— patent US20240308998A1, “PYRROLOPYRIDONE DERIVATIVES USEFUL IN THE TREATMENT OF CANCER” (Tay Therapeutics Limited, priority 2021, published 2024)
